Tested on: Human RSV-A (“Long” strain)
Experiment: RSV in vitro cytoprotection assay (CPE, ATPlite) in HEp-2 cells
Format: cell-based
Settings: human respiratory syncytial virus, 96 h; HEp-2 cells, 4-day incubation, ATPlite readout; read-out: Human RSV-A (“Long” strain) EC50
Source text: RSV is a single stranded negative sense RNA virus that causes respiratory tract infections which can be dangerous to infants, the elderly, and immunosuppressed individuals. Currently there is no vaccine, and therapeutic options are both costly and of limited effectiveness. These approved treatments are Ribavirin, and Palivizumab/Synagis (a monoclonal antibody). RSV has two genotypes, A and B, which differ primarily in the structure of the virus' surface “G” attachment protein. Our current primary screen focuses on RSV-A and uses an in vitro cytoprotection assay where compounds are added in 2-fold dilutions to cells which are then subjected to fully replicative viral particles. Cell viability is measured several days later along with separate measurements of compound cytotoxicity. This report focuses on the results of our most recent screening of compounds.
HEp-2 cells, (originally derived from tumors grown in irradiated-cortisonised weanling rats that had been injected with epidermoid carcinoma tissue from a person's larynx, but later found to be indistinguishable from HeLa cells by PCR DNA analysis), were used for the culturing of genotype A, “Long” strain RSV. Flasks were inoculated with RSV and viral stocks were collected once cytopathic effect (CPE) was greater than 90%. Viral stocks in 25% sucrose media were snap frozen using liquid nitrogen to increase viral stability. Viral stock titers were quantified by tissue culture infectious dose 50% (TCID50) using 8,000 cells per well and 3-fold viral dilutions across a 96-well plate, cultured for 4 days.
Following extensive parameter testing, the final assay is run as follows: HEp-2 cells are seeded into the inner 60 wells of a 96-well plate at 8,000 cells per well in a volume of 50 μL using Growth Media (DMEM without phenol red, 1% L-Glut, 1% Penn/Strep, 1% nonessential amino acids, 10% FBS). 2-Fold serial dilutions of control and test compounds are added to the wells in duplicate in a total volume of 25 μL. Viral stock is then added to the wells in a volume of […] the total volume of each well to 100 μL. Each 96-well plate has a control column of 6 wells with cells and virus but no compound (negative control, max CPE), a column with cells but no compound or virus (positive control, minimum CPE), and a column with no cells or virus or compound (background plate/reagent control). The control wells with cells but no virus are given an additional 25 uL of growth media containing an equal quantity of sucrose as those wells receiving the viral stock in order to keep consistent in media and volume conditions. The outer wells of the plate are filled with 125 μL of growth media to act as a thermal and evaporative moat around the test wells. Following a 4-day incubation period, the plates are read using ATPlite (50 uL added per well), which quantifies the amount of ATP (a measure of cell health) present in each well. Assay plates are read using the Envision luminometer. In parallel, cytotoxicity is examined on an additional 96-well plate treated in an identical manner, but substituting the 25 μL of viral stock for 25 μL of growth media. […] EC50 ranges are as follows: A<0.01 μM; B 0.01-0.05 μM; C>0.05 μM.

Which EC50 does the source give for `Cc1cnc(N2CC3(CCOCC3)C2)c(C(=O)Nc2ccc(C(=O)N3CCc4c(sc(C(=O)Nc5c(F)cccc5Cl)c4F)-c4ccccc43)cc2)c1` [Example 197] here?
Its EC50 is less than 10 nM.

With `Cc1cnc(N2CC3(CCOCC3)C2)c(C(=O)Nc2ccc(C(=O)N3CCc4c(sc(-c5nc6cccc(C(F)(F)F)c6[nH]5)c4F)-c4ccccc43)cc2)c1` [Example 203] as the compound, how does the EC50 read?
The EC50 was 10 to 50 nM.

How did the EC50 turn out when `O=C(Nc1ccc(C(=O)N2CCc3nc(-c4nc5ccccc5[nH]4)oc3-c3ccccc32)cc1)c1cccnc1N1CC2(CCOCC2)C1` [Example 109] was run?
The EC50 was 10 to 50 nM.

How did the EC50 turn out when `O=C(Nc1c(F)cccc1F)c1cc2c(s1)-c1ccc(F)cc1N(C(=O)c1ccc(NC(=O)c3cccnc3N3CCCC(F)(F)CC3)cc1)CC2` [Example 52] was run?
Its EC50 is greater than 50 nM.

For `O=C(Nc1c(F)cc(F)cc1F)c1cc2c(o1)-c1ccc(F)cc1N(C(=O)c1ccc(NC(=O)c3cccnc3N3CC4(CCOCC4)C3)cc1)CC2` [Example 100], which EC50 is on record?
Its EC50 is less than 10 nM.

How did the EC50 turn out when `O=C(Nc1c(F)cc(F)cc1F)c1cc2c(s1)-c1ccc(F)cc1N(C(=O)c1ccc(NC(=O)c3cc4c(nc3N3CC5(CCOCC5)C3)CCC4)cc1)CC2` [Example 67] was run?
Its EC50 is less than 10 nM.

`Cc1cnc(N2CC3(CCOCC3)C2)c(C(=O)Nc2ccc(C(=O)N3CCc4c(sc(NC(=O)c5c(F)cccc5Cl)c4F)-c4ccccc43)cc2)c1` [Example 305] was tested. Which EC50 did it give?
Its EC50 is less than 10 nM.

For `Cc1ccc(C(=O)Nc2ccc(C(=O)N3CCc4cc(C(=O)Nc5c(C)cccc5F)oc4-c4ccccc43)cc2)c(N2CC3(CCOCC3)C2)n1` [Example 256], which EC50 is on record?
Its EC50 is less than 10 nM.

With `Cc1cnc(N2CC3(CCOCC3)C2)c(C(=O)Nc2ccc(C(=O)N3CCc4cc(C(=O)Nc5c(F)cccc5Cl)oc4-c4ccc(F)cc43)cc2)c1` [Example 237] as the compound, how does the EC50 read?
Its EC50 is less than 10 nM.

`O=C(Nc1ccc(C(=O)N2CCc3cc(-c4nc5ccc(F)cc5[nH]4)sc3-c3ccc(F)cc32)cc1)c1cc(F)cnc1N1CC2(CCOCC2)C1` [Example 42] was tested. Which EC50 did it give?
Its EC50 is 10 to 50 nM.

How did the EC50 turn out when `Cc1cccc(F)c1NC(=O)c1cc2c(s1)-c1cc(F)c(F)cc1N(C(=O)c1ccc(NC(=O)c3cc(F)cnc3N3CC4(CCOCC4)C3)cc1)CC2` [Example 72] was run?
The EC50 was 10 to 50 nM.

With `Cc1cnc(N2CC3(CCOCC3)C2)c(C(=O)Nc2ccc(C(=O)N3CCc4c(sc(C(=O)Nc5ccccc5)c4F)-c4ccccc43)cc2)c1` [Example 211] as the compound, how does the EC50 read?
Its EC50 is less than 10 nM.

For `Cc1ccc(C(=O)Nc2ccc(C(=O)N3CCc4cc(-c5nc6ccccc6[nH]5)sc4-c4ccc(F)cc43)cc2)c(N2CC3(CCOCC3)C2)n1` [Example 147], which EC50 is on record?
The EC50 was less than 10 nM.

For `Cc1cnc(N2CC3(CCOCC3)C2)c(C(=O)Nc2ccc(C(=O)N3CCc4cc(NC(=O)c5c(F)cccc5C(F)(F)F)sc4-c4ccccc43)cc2)c1` [Example 287], which EC50 is on record?
Its EC50 is 10 to 50 nM.

Which EC50 does the source give for `Cc1cnc(N2CC3(CCOCC3)C2)c(C(=O)Nc2ccc(C(=O)N3CCc4c(sc(C(=O)Nc5c(F)cccc5F)c4C)-c4ccccc43)cc2)c1` [Example 274] here?
The EC50 was less than 10 nM.

How did the EC50 turn out when `Cc1cnc(N2CC3(CCOCC3)C2)c(C(=O)Nc2ccc(C(=O)N3CCc4cc(-c5nccs5)sc4-c4ccc(F)cc43)cc2)c1` [Example 154] was run?
The EC50 was less than 10 nM.

How did the EC50 turn out when `Cc1cnc(N2CC3(CCOCC3)C2)c(C(=O)Nc2ccc(C(=O)N3CCc4cc(-c5ccncc5)sc4-c4ccc(F)cc43)cc2)c1` [Example 166] was run?
Its EC50 is less than 10 nM.

For `Cc1cnc(N2CC3(CCOCC3)C2)c(C(=O)Nc2ccc(C(=O)N3CCc4sc(C(=O)Nc5c(F)cccc5F)cc4-c4ccccc43)cc2)c1` [Example 261], which EC50 is on record?
The EC50 was less than 10 nM.

For `Cc1ccnc(NC(=O)c2sc3c(c2F)CCN(C(=O)c2ccc(NC(=O)c4cc(C)cnc4N4CC5(CCOCC5)C4)cc2)c2ccccc2-3)c1` [Example 227], which EC50 is on record?
Its EC50 is 10 to 50 nM.

With `O=C(Nc1c(F)cc(F)cc1Cl)c1cc2c(s1)-c1ccc(F)cc1N(C(=O)c1ccc(NC(=O)c3cc(C(F)(F)F)cnc3N3CC4(CCOCC4)C3)cc1)CC2` [Example 29] as the compound, how does the EC50 read?
Its EC50 is 10 to 50 nM.

How did the EC50 turn out when `Cc1cnc(N2CC3(CCOCC3)C2)c(C(=O)Nc2ccc(C(=O)N3CCc4cc(-c5ncccn5)sc4-c4ccc(F)cc43)cc2)c1` [Example 191] was run?
Its EC50 is 10 to 50 nM.

How did the EC50 turn out when `O=C(Nc1c(F)cc(F)cc1F)c1nc2c(s1)-c1ccccc1N(C(=O)c1ccc(NC(=O)c3cccnc3N3CC4(CCOCC4)C3)cc1)CC2` [Example 105] was run?
The EC50 was 10 to 50 nM.

With `Cc1cnc(N2CC3(CCOCC3)C2)c(C(=O)Nc2ccc(C(=O)N3CCc4cc(C(=O)NC5CCOCC5)sc4-c4ccc(F)cc43)cc2)c1` [Example 130] as the compound, how does the EC50 read?
Its EC50 is less than 10 nM.

`Cc1cnc(N2CC3(CCOCC3)C2)c(C(=O)Nc2ccc(C(=O)N3CCc4c(sc(C(=O)Nc5ccccc5F)c4Cl)-c4ccccc43)cc2)c1` [Example 270] was tested. Which EC50 did it give?
The EC50 was less than 10 nM.

Which EC50 does the source give for `Cc1cnc(N2CC3(CCOCC3)C2)c(C(=O)Nc2ccc(C(=O)N3CCc4cc(NC(=O)OC5CCC5)sc4-c4ccccc43)cc2)c1` [Example 292] here?
The EC50 was less than 10 nM.

For `Cc1ccc(C(=O)Nc2ccc(C(=O)N3CCc4c(sc(-c5nc6cccc(F)c6[nH]5)c4F)-c4ccccc43)cc2)c(N2CC3(CCOCC3)C2)n1` [Example 214], which EC50 is on record?
The EC50 was less than 10 nM.

`O=C(Nc1c(F)cccc1F)c1cc2c(s1)-c1ccc(F)cc1N(C(=O)c1ccc(NC(=O)c3cccnc3-c3ccncc3)cc1)CC2` [Example 63] was tested. Which EC50 did it give?
Its EC50 is greater than 50 nM.

How did the EC50 turn out when `O=C(Nc1c(F)cccc1F)c1cc2c(s1)-c1ccc(F)cc1N(C(=O)c1ccc(NC(=O)c3cccnc3N3CCOc4ccccc4C3)cc1)CC2` [Example 53] was run?
The EC50 was greater than 50 nM.

`CC1(CNc2ncccc2C(=O)Nc2ccc(C(=O)N3CCc4cc(C(=O)Nc5c(F)cccc5F)sc4-c4ccc(F)cc43)cc2)CCCO1` (stereo not shown) [Example 58] was tested. Which EC50 did it give?
Its EC50 is greater than 50 nM.

For `O=C(Nc1c(F)cc(F)cc1Cl)c1nc2c(s1)-c1ccccc1N(C(=O)c1ccc(NC(=O)c3cccnc3N3CC4(CCOCC4)C3)cc1)CC2` [Example 106], which EC50 is on record?
The EC50 was 10 to 50 nM.

With `Cc1cnc(N2CC3(CCOCC3)C2)c(C(=O)Nc2ccc(C(=O)N3CCc4c(sc(C(=O)Nc5c(C)cccc5F)c4Cl)-c4ccccc43)cc2)c1` [Example 268] as the compound, how does the EC50 read?
Its EC50 is less than 10 nM.

Which EC50 does the source give for `O=C(Nc1ccc(C(=O)N2CCc3cc(-c4nc5ccccc5[nH]4)sc3-c3c2ccc(F)c3F)cc1)c1cccnc1N1CC2(CCOCC2)C1` [Example 70] here?
Its EC50 is 10 to 50 nM.

Which EC50 does the source give for `Cc1ccc(C(=O)Nc2ccc(C(=O)N3CCc4cc(C(=O)Nc5ccccc5F)oc4-c4ccccc43)cc2)c(N2CC3(CCOCC3)C2)n1` [Example 258] here?
The EC50 was less than 10 nM.

How did the EC50 turn out when `Cc1cnc(N2CC3(CCOCC3)C2)c(C(=O)Nc2ccc(C(=O)N3CCc4cc(-c5nc6ccccc6[nH]5)sc4-c4ccc(F)cc43)cc2)c1` [Example 3] was run?
Its EC50 is less than 10 nM.

How did the EC50 turn out when `COc1ccc(C(=O)Nc2ccc(C(=O)N3CCc4cc(C(=O)Nc5c(F)cc(F)cc5Cl)sc4-c4ccc(F)cc43)cc2)c(N2CC3(CCOCC3)C2)n1` [Example 24] was run?
The EC50 was 10 to 50 nM.

For `Cc1ccc(C(=O)Nc2ccc(C(=O)N3CCc4cc(NC(=O)OC5CCC5)sc4-c4ccccc43)cc2)c(N2CC3(CCOCC3)C2)n1` [Example 298], which EC50 is on record?
The EC50 was 10 to 50 nM.

`O=C(Nc1c(F)cccc1F)c1cc2c(s1)-c1ccc(F)cc1N(C(=O)c1ccc(NC(=O)c3cc(C(F)F)cnc3N3CC4(CCOCC4)C3)cc1)CC2` [Example 146] was tested. Which EC50 did it give?
Its EC50 is 10 to 50 nM.

With `O=C(Nc1ccc(C(=O)N2CCc3cc(-c4nc5ccccc5[nH]4)oc3-c3ccc(F)cc32)cc1)c1cc2c(nc1N1CC3(CCOCC3)C1)CCC2` [Example 244] as the compound, how does the EC50 read?
Its EC50 is less than 10 nM.

For `Cc1cnc(N2CC3(CCOCC3)C2)c(C(=O)Nc2ccc(C(=O)N3CCc4cc(-c5ncc(C)o5)sc4-c4ccc(F)cc43)cc2)c1` [Example 156], which EC50 is on record?
The EC50 was 10 to 50 nM.

Which EC50 does the source give for `O=C(Nc1c(F)cc(F)cc1Cl)c1cc2c(s1)-c1ccc(F)cc1N(C(=O)c1ccc(NC(=O)c3cc(F)cnc3N3CC4(CCOCC4)C3)cc1)CC2` [Example 26] here?
The EC50 was less than 10 nM.

Source: patent US11091501B2, “Heterocyclic compounds as RSV inhibitors” (Enanta Pharmaceuticals, Inc., priority 2017, dated 2021)
